# Laboratory results: publication PMC11859928, “Design, Synthesis, and Antiproliferative Activity of Novel Indole/1,2,4-Triazole Hybrids as Tubulin Polymerization Inhibitors” (Pharmaceuticals, 2025)
# Where two headings read alike, the source gives them in different places.
# Assays:
# [1] = test system: K-562; test: NCI five-dose assay; type: cell-based, human; conditions: K-562, Leukemia
# [2] = test system: MOLT-4; test: NCI five-dose assay; type: cell-based, human; conditions: MOLT-4, Leukemia
# [3] = test system: EKVX; test: NCI five-dose assay; type: cell-based, human; conditions: Non-small cell lung cancer
# [4] = test system: NCI-H226; test: NCI five-dose assay; type: cell-based, human; conditions: NCI-H226, Non-small cell lung cancer
# [5] = test system: NCI-H23; test: NCI five-dose assay; type: cell-based, human; conditions: NCI-H23, Non-small cell lung cancer
# [6] = test system: HCC-2998; test: NCI five-dose assay; type: cell-based, human; conditions: HCC-2998, Colon cancer
# [7] = test system: SW-620; test: NCI five-dose assay; type: cell-based, human; conditions: SW-620, Colon cancer
# [8] = test system: SF-268; test: NCI five-dose assay; type: cell-based, human; conditions: SF-268, CNS cancer
# [9] = test system: SF-539; test: NCI five-dose assay; type: cell-based, human; conditions: SF-539, CNS cancer
# [10] = test system: U251; test: NCI five-dose assay; type: cell-based, human; conditions: U251, CNS cancer
# [11] = test system: MALME-3M; test: NCI five-dose assay; type: cell-based, human; conditions: Melanoma
# [12] = test system: MDA-MB-435; test: NCI five-dose assay; type: cell-based, human; conditions: MDA-MB-435, Melanoma
# [13] = test system: UACC-257; test: NCI five-dose assay; type: cell-based, human; conditions: Homo sapiens, UACC-257, Melanoma
# [14] = test system: OVCAR-3; test: NCI five-dose assay; type: cell-based, human; conditions: Homo sapiens, OVCAR-3, Ovarian cancer
# [15] = test system: OVCAR-8; test: NCI five-dose assay; type: cell-based, human; conditions: OVCAR-8, Ovarian cancer
# [16] = test system: NCI/ADR-RES; test: NCI five-dose assay; type: cell-based, human; conditions: Ovarian cancer
# [17] = test system: SK-OV-3; test: NCI five-dose assay; type: cell-based, human; conditions: SK-OV-3, Ovarian cancer
# [18] = test system: 786-0; test: NCI five-dose assay; type: cell-based, human; conditions: 786-0, Renal cancer
# [19] = test system: ACHN; test: NCI five-dose assay; type: cell-based, human; conditions: Renal cancer
# [20] = test system: CAKI-1; test: NCI five-dose assay; type: cell-based, human; conditions: CAKI-1, Renal cancer
# [21] = test system: SN12C; test: NCI five-dose assay; type: cell-based, human; conditions: Renal cancer
# [22] = test system: PC-3; test: NCI five-dose assay; type: cell-based, human; conditions: PC-3, Prostate cancer
# [23] = test system: DU-145; test: NCI five-dose assay; type: cell-based, human; conditions: DU-145, Prostate cancer
# [24] = test system: MDA/MB-231-ATCC; test: NCI five-dose assay; type: cell-based, human; conditions: Breast cancer
# [25] = test system: Prostate cancer subpanel; test: NCI five-dose assay, subpanel mean; type: cell-based, human
# [26] = test system: panel of 60 human tumor cell lines; test: NCI five-dose assay, full panel; type: cell-based
# [27] = Homo sapiens, read-out: GI50 Conc. per Cell Lines
# [28] = Homo sapiens, 48 h, read-out: LC50 (the source's name)
# [29] = read-out: GI50 Conc. per Cell Lines
compound,measurement,setting,value
"Cc1ccc(/C(CSc2nnc(-c3c[nH]c4ccccc34)n2-c2ccccc2)=N/O)cc1 [Compound 7h, (Z)-2-((5-(1H-Indol-3-yl)-4-phenyl-4H-1,2,4-triazol-3-yl)thio)-1-(p-tolyl)ethanone Oxime]",CC50,"[1]; Homo sapiens, K562, 48 h, read-out: LC50 (the source's name)",> 100 µM
same,GI50,"[1]; Homo sapiens, K562, read-out: GI50 Conc. per Cell Lines",2.01 µM
same,TGI Conc. per Cell Lines,[1],4.97 µM
same,GI50,[2]; [27],2.04 µM
same,TGI Conc. per Cell Lines,[2],4.23 µM
same,CC50,[3]; [28],> 100 µM
same,GI50,[3]; [27],2.15 µM
same,TGI Conc. per Cell Lines,[3],5.58 µM
same,CC50,[4]; [28],6.91 µM
same,GI50,[4]; [27],1.63 µM
same,TGI Conc. per Cell Lines,[4],3.36 µM
same,CC50,[5]; [28],> 100 µM
same,GI50,[5]; [27],10.1 µM
same,TGI Conc. per Cell Lines,[5],52.20 µM
same,TGI Conc. per Cell Lines,[6],3.93 µM
same,CC50,[6]; [28],7.39 µM
same,GI50,[6]; [27],2.09 µM
same,CC50,[7]; [28],7.04 µM
same,GI50,[7]; [27],1.79 µM
same,TGI Conc. per Cell Lines,[7],3.55 µM
same,CC50,[8]; [28],> 100 µM
same,GI50,[8]; [27],1.99 µM
same,TGI Conc. per Cell Lines,[8],4.66 µM
same,CC50,[9]; [28],9.43 µM
same,GI50,[9]; [27],2.06 µM
same,TGI Conc. per Cell Lines,[9],4.41 µM
same,CC50,"[10]; Homo sapiens, U-251, 48 h, read-out: LC50 (the source's name)",> 100 µM
same,GI50,"[10]; Homo sapiens, U-251, read-out: GI50 Conc. per Cell Lines",8.22 µM
same,TGI Conc. per Cell Lines,[10],>100 µM
same,CC50,[11]; [28],59.1 µM
same,GI50,[11]; [27],2.26 µM
same,TGI Conc. per Cell Lines,[11],5.57 µM
same,CC50,[12]; [28],5.72 µM
same,GI50,[12]; [27],1.63 µM
same,TGI Conc. per Cell Lines,[12],3.05 µM
same,CC50,"[13]; 48 h, read-out: LC50 (the source's name)",> 100 µM
same,GI50,[13]; [29],2.57 µM
same,LC50,[14]; 48 h,> 100 µM
same,GI50,[14]; [29],4.26 µM
same,GI50,[15]; [27],2.19 µM
same,TGI Conc. per Cell Lines,[15],4.89 µM
same,LC50,"[16]; Homo sapiens, 48 h",7.59 µM
same,GI50,[16]; [27],2 µM
same,TGI Conc. per Cell Lines,[16],3.90 µM
same,CC50,[17]; [28],7.89 µM
same,GI50,[17]; [27],1.68 µM
same,TGI Conc. per Cell Lines,[17],3.64 µM
same,TGI Conc. per Cell Lines,[18],31.40 µM
same,LC50 (50% lethal concentration),"[18]; Homo sapiens, 48 h",98.1 µM
same,GI50,[18]; [27],10 µM
same,LC50,"[19]; Homo sapiens, 48 h",6.26 µM
same,GI50,[19]; [27],1.79 µM
same,TGI Conc. per Cell Lines,[19],3.35 µM
same,TGI Conc. per Cell Lines,[20],3.06 µM
same,LC50,"[20]; Homo sapiens, 48 h",5.74 µM
same,GI50,[20]; [27],1.63 µM
same,CC50,[21]; [28],36.7 µM
same,GI50,[21]; [27],2.33 µM
same,TGI Conc. per Cell Lines,[21],6.80 µM
same,GI50,[22]; [27],1.77 µM
same,TGI Conc. per Cell Lines,[22],3.74 µM
same,TGI Conc. per Cell Lines,[23],4.01 µM
same,GI50,[23]; [27],1.94 µM
same,TGI Conc. per Cell Lines,[24],3.33 µM
same,LC50,"[24]; Homo sapiens, 48 h",6.27 µM
same,GI50,[24]; [27],1.77 µM
same,GI50,"[25]; Homo sapiens, average sensitivity of all cell lines of the Prostate cancer subpanel, read-out: GI50 Subpanel MID b",1.85 µM
same,GI50 Selectivity Ratio (MID a/MID b),[25]; Prostate cancer subpanel,1.61
same,GI50,"[26]; average sensitivity of all cell lines, read-out: GI50 MID a",3 µM
same,GI50,"[26]; most of the tested cell lines across nine subpanels, read-out: GI50 values, range across nine subpanels",1.85 to 5.76 µM
